Values quoted from earlier work as cited in PMC8305651 (International Journal of Molecular Sciences, 2021).

Settings: cited from earlier work

## O=c1cc(-c2ccc(O)c(O)c2)oc2cc(O)cc(O)c12 [luteolin]
  bioavailability: low bioavailability
